From US20070218491A1, “Oligomerization of amyloid proteins” (Oligomerix, Inc., priority 2006, published 2007)
Read-outs that look alike come from different tables or passages of the source.

Columns and labels:
[1] = biological target: T1, human islet amyloid polypeptide (Homo sapiens, UniProt P10997); conditions: cited from earlier work
T1 sequence (P10997 34-70 limits assumed): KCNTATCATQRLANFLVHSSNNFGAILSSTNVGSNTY

tau = tau (Homo sapiens, UniProt P10636); assay: Screening compounds for inhibition of RNA-facilitated tau oligomer formation (modified ELISA); format: biochemical; conditions: incubations with RQ11+12 RNA polyanion; FIG. 14
tau, sequence (P10636 1-412 isoform P10636-7): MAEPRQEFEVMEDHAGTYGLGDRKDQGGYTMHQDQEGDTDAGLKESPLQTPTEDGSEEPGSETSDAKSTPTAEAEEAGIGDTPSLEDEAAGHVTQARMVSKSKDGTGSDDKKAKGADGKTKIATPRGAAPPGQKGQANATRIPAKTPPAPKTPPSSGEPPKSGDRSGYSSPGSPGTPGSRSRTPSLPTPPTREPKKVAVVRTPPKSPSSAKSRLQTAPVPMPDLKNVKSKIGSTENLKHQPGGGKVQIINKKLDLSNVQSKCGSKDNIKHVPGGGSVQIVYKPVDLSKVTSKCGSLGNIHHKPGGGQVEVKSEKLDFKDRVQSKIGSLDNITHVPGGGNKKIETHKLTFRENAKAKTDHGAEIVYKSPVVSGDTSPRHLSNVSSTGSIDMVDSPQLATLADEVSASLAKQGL
Protocol: RNA polyanion was used to facilitate oligomer formation of tau protein in vitro using the following, preferred, conditions: 20 pmoles of tau412 was reacted with 4 pmoles of a 197 base RNA, i.e., RQ11+12, in 50 mM Tris-HCl buffer at pH of 7.4 and incubated for 1 hour at 37° C. […] The 5:1 ratio was optimal for the RNA RQT157 as well (FIG. 15). […] The kinetics of oligomer formation was rapid. […] Physiological pH and temperature were used in the assay to simulate biological conditions.
Formation of tau oligomers was analyzed using two different ELISA methods to provide verified data. The “modified” ELISA uses the same monoclonal antibody for capture and detection. Insoluble aggregates are removed in the ELISA procedure during washing steps. Only soluble aggregates of tau, not monomers, are detected with this ELISA because the detection and reporter antibody recognizes an epitope which is present only once within tau. At least one more tau molecule must be present in the complex for detection with the same antibody (method illustrated in FIG. 7). The modified ELISA used is similar to the modified ELISA previously used for identification of Aβ oligomers (Sian et al., Biochem. J. 349(Pt 1):299-308 2000)) and PrP oligomers (Vasan et al., Neurochem Res 31(5):629-37(2006)). […]

tau412 = tau412 (Homo sapiens, UniProt P10636); assay: Polyanion-facilitated tau412 oligomer formation detected by ELISA (modified, A11, DC11); format: biochemical; conditions: for facilitation of tau412 oligomer formation by heparin or DNA: modified ELISA, FIGS. 13 and 16
tau412, sequence (P10636 1-412 isoform P10636-7): as above
Protocol: The 5:1 ratio was optimal for the RNA RQT157 as well (FIG. 15). […] The kinetics of oligomer formation was rapid. […] Physiological pH and temperature were used in the assay to simulate biological conditions. Formation of tau oligomers was analyzed using two different ELISA methods to provide verified data. The “modified” ELISA uses the same monoclonal antibody for capture and detection. Insoluble aggregates are removed in the ELISA procedure during washing steps. Only soluble aggregates of tau, not monomers, are detected with this ELISA because the detection and reporter antibody recognizes an epitope which is present only once within tau. At least one more tau molecule must be present in the complex for detection with the same antibody (method illustrated in FIG. 7). The modified ELISA used is similar to the modified ELISA previously used for identification of Aβ oligomers (Sian et al., Biochem. J. 349(Pt 1):299-308 2000)) and PrP oligomers (Vasan et al., Neurochem Res 31(5):629-37(2006)). This assay used antibody MN1000, recognizing tau epitope amino acids 159-163, for capture and biotinylated MN1000 as reporter. […] The second ELISA method to detect oligomers is based on polyclonal antibody A11 which recognizes a common structure in soluble amyloid oligomers (FIGS. 8-10, and 12). (Kayed et al., Science 300: 486-491(2003)). […] This assay was used to optimize the molar ratio of tau:RNA for oligomer formation (FIGS. 8 and 15), follow oligomer formation over time (FIG. 10), show tau oligomer formation with a range of RNAs (FIG. 12), and detect soluble tau oligomers in CSF (FIG. 11). A third ELISA was used to show biological relevance of the tau oligomers formed in this assay to tau in AD and is based on monoclonal antibodies DC11 used for capture and biotinylated MN1000 for reporter. The antibody DC11 recognizes a conformational epitope in tau specific for AD (Vechterova et al., Neuroreport 1:87-91 (2003)). […] Oligomer formation was determined by modified ELISA (described above). […]

For `Cc1ccc(C(=O)Nc2ccc(S(=O)(=O)O)c3cc(S(=O)(=O)O)cc(S(=O)(=O)O)c23)cc1NC(=O)c1cccc(NC(=O)Nc2cccc(C(=O)Nc3cc(C(=O)Nc4ccc(S(=O)(=O)O)c5cc(S(=O)(=O)O)cc(S(=O)(=O)O)c45)ccc3C)c2)c1` [Suramin], the “effect on amyloid fibril formation” value ([1]; at high concentrations) is listed as “stimulated the process” and the “effect on amyloid fibril formation” value ([1]; at low concentrations) is listed as “inhibited amyloid fibril formation”.

With `COc1cc(/C=C/C(=O)CC(=O)/C=C/c2ccc(O)c(OC)c2)ccc1O` [curcumin] the “inhibition of RNA-facilitated tau oligomer formation” value (tau) was “inhibition”.

In the case of Heparin, the “facilitation of tau412 oligomer formation by heparin or DNA” value (tau412) is reported as “effective in facilitating tau oligomer formation”.

In the case of Polydeoxythymidine, the “facilitation of tau412 oligomer formation by heparin or DNA” value (tau412) is reported as “enhanced tau412 oligomer formation”.

With polyA the “facilitation of tau oligomer formation by RNA” value (tau412; 5:1 tau:RNA ratio, detected with A11 Ab, FIG. 12) was “facilitated tau oligomer formation”.
